{"source": "patent US20070142326A1", "about": "“Treatment of a condition in a mammal with administration of aminosugar and uses thereof” (priority 2004, published 2007)", "key": {"[1]": {"tested_on": "articular cartilage of rabbits with ACLT (experimental OA)", "assay": "Histological grading of articular cartilage, ACLT rabbits, intra-articular injections", "format": "in vivo, New Zealand White rabbits", "conditions": "N = 6; for Sulfated glycosaminoglycan loss, histological grade: grade 1-3 by loss of Safranin O staining, intra-articular 80 mg twice per week for 7 weeks; for Impairment of cartilage surface integrity, histological grade: grade 1 intact to 3 full thickness defect, intra-articular", "method": "(§1) Anterior cruciate ligament transection (ACLT). Unilateral or bilateral ACLT was performed as indicated for each set of experiments. ACLT was performed using a medial arthrotomy technique (Yoshioka et al. Osteoarthritis Cartilage 1996; 4:87-98). After dislocating the patella laterally, the ACL was transected with a sharp blade. Complete transection was confirmed by a manual anterior drawer test The knee joints were irrigated with sterile saline and closed in layers with sutures. All animals were maintained individually with ad libitum activity. The animals were sacrificed 8 weeks after the surgery.\n(§2) Intra-articular injections of GlcNAc. Intra-articular injections of GlcNAc started one week post-operatively for a period of seven weeks. Rabbits were injected twice per week with GlcNAc in a volume of 0.3 ml per knee joint The single dose of GlcNAc per injection was 80 mg. Control animals were injected twice per week intra-articularly with normal saline (0.3 ml per joint). The third group of rabbits received intra-articular injections of hyaluronan (0.3 ml per joint) twice per week for seven weeks starting one week after the ACL transection. Synovial fluid analysis was performed in 3 animals that developed gross synovial effusions (2 animals in the control group and 1 animal in the hyaluronan group). In all three animals synovial fluid was culture negative.\n(§3) Histological grading of the knee joints. Distal femur and proximal tibia from the rabbit knee joints were fixed in 10% buffered formalin, decalcified in TBD-2 decalcifier (ThermoShandon, Pittsburg, Calif.) and embedded in paraffin blocks. Sagittal sections of lateral and medial femoral condyles, and coronal sections of tibial plateaus were used for further histological analysis.\nThe assessment of sulfated glycosaminoglycan (SGAG) content was performed after staining of the tissue sections with Safranin O/Fast Green.\nThe following grading system was used for assessing SGAG content: Grade 1—Less than 25% loss of Safranin O staining, Grade 2—25-50% loss of Safranin O staining; Grade 3—More than 50% loss of Safranin O staining;\nThe following grading system was used for assessing cartilage integrity: Grade 1—Intact cartilage surface; Grade 2—Presence of fibrillations; Grade 3—Full thickness cartilage defect. In addition, all tissue samples were analyzed for the presence of chondrocyte proliferation or cloning."}, "[2]": {"tested_on": "synovium of rabbits with ACLT (experimental OA)", "assay": "Histological grading of synovium, ACLT rabbits, intra-articular injections", "format": "in vivo, New Zealand White rabbits", "method": "as §1, §2, §3\nHistological assessment of synovium was based on the presence of synovial proliferation and synovial neoangiogenesis, and it was performed separately for the synovium attached to the tibial plateaus, lateral, and medial femoral condyles."}, "[3]": {"tested_on": "subchondral bone marrow of rabbits with ACLT (experimental OA)", "assay": "Histological grading of subchondral bone marrow, ACLT rabbits, intra-articular injections", "format": "in vivo, New Zealand White rabbits", "method": "as §1, §2, §3\nMicroscopic assessment of bone marrow was based on the presence of subchondral bone marrow hypercellularity and increased vascularization as shown in Table 3."}, "[4]": {"tested_on": "femoral condyles and tibial plateaus of rabbits with ACL transection", "assay": "Gross morphological assessment and digital imaging of articular cartilage, ACLT rabbits, intra-articular injections", "format": "in vivo, New Zealand White rabbits", "conditions": "for Gross morphological analysis of the femoral condyles: FIG. 2", "method": "as §1, §2\nGross morphological assessment of the articular cartilage. The distal femur and proximal tibia were harvested keeping a 3.5 cm to 4 cm shaft of the bones. The articular cartilage surface of each specimen was covered with a solution consisting of India ink (Eberhard Faber, Lewisburg, Tenn.) in PBS (1:5 ratio). Excess ink solution was removed by gentle blotting with a tissue that was pre-moistened with PBS. Subsequently, all joints were photographed and digital images were analyzed.\nDigital imaging. Articular surfaces of femoral condyles and tibial plateaus were gently blotted dry and cleaned of loose tissue. Each femoral shaft was clamped to an optical bench. An image (resolution: 60 pixels per mm; onscreen magnification: 20×) of the femoral condyles was obtained using a Canon EOS D30 digital camera with a 100 mm macro lens at a distance of approximately 12 cm. A millimeter scale was included in the photograph to accurately scale the image. The scaled image was then projected onto a 3D model of the femoral condyles. The 3D surface area of the lesion was measured by interactively plotting the margins of the lesion. A digital image of articular surface of the tibia was obtained as described above."}, "[5]": {"tested_on": "knee joints of rabbits with ACL transection", "assay": "Gross morphological assessment of joint swelling and synovial effusion, ACLT rabbits, intra-articular injections", "format": "in vivo, New Zealand White rabbits", "conditions": "FIG. 4", "method": "as §1, §2\n(§4) Gross morphological assessment of the knee joints. Gross morphological assessment of the knee joints included assessment of joint swelling, synovial effusion, macroscopic articular cartilage morphology of tibial plateaus and femoral condyles, and assessment of the menisci.\nThe following grading system was used to assess joint swelling: Grade 0-normal; Grade 1 (mild swelling)—mild inflammation and/or proliferation of the joint capsule; Grade 2 (moderate swelling)—thickening of joint capsule and/or inflammation of the synovium; Grade 3 (severe swelling)—abundant inflammation of the synovium, swelling of the menisci or ligaments (anterior cruciate ligament or posterior cruciate ligament)."}, "[6]": {"tested_on": "synovial tissue of rabbits with ACL transection", "assay": "DNA content in synovial tissue, ACLT rabbits, intra-articular injections", "format": "in vivo, New Zealand White rabbits", "conditions": "FIG. 5", "method": "as §1\nIntra-articular injections of GlcNAc. Intra-articular injections of GlcNAc started one week post-operatively for a period of seven weeks. Rabbits were injected twice per week with GlcNAc in a volume of 0.3 ml per knee joint The single dose of GlcNAc per injection was 80 mg. Control animals were injected twice per week intra-articularly with normal saline (0.3 ml per joint). […]\nMeasurement of DNA content in synovial tissue. Synovial tissue cellularity was assessed by quantitating the tissue concentration of DNA (Amiel et. al. J Orthop Res 1986; 4:162-172). […] The aqueous phase containing the DNA was harvested, and the absorbance was measured at […]. […] Results were expressed as mg DNA per mg of dry tissue."}, "[7]": {"tested_on": "rabbits with bilateral anterior cruciate ligament transection (ACLT)", "assay": "Intra-muscular GlcNAc in rabbits with bilateral ACLT, gross morphological grading", "format": "in vivo, New Zealand White rabbits", "method": "as §1\nIntra-muscular injections of GlcNAc. Intra-muscular injections of GlcNAc were performed three times per week starting one week postoperatively for a period of seven weeks. The dose of GlcNAc was 200 mg/kg per injection. The control group of received the same number of intra-muscular injections of normal saline.\nas §4\nGross morphological assessment of the articular cartilage. […] Subsequently, all joints were photographed and digital images were analyzed."}, "[8]": {"assay": "Continuous delivery of GlcNAc to the joint (sustained release and alzet pump methods)", "conditions": "after a single intra-articular administration", "method": "Release of GlcNAc from formulations incubated in phosphate buffered saline. An in vitro release study was performed in phosphate buffered saline to evaluated release kinetics under physiological conditions. Each sustained release formulation (100 μl) was placed in 1.0 mL of phosphate buffered saline and then incubated at 37° C. At different time points, the formulation matrix was separated by removing the phosphate buffered saline bathing solution with a pipet. The resulting solutions were analyzed by UV detection after GlcNAc derivatives were formed by methods previously described (Reissig et. al. J. Biol. Chem. 1955 217: 959-966). The formulation matrix was then re-suspended in 1.0 mL phosphate buffered saline and incubated under the same conditions as described above.\nAlzet Pump Administration of GlcNAc. New Zealand White rabbits, 3.0-3.5 kg, were used in this experiment. They were randomly allocated into five groups, each group having 8 rabbits. Group A was treated with saline (negative control group); Group B was treated with 1.5 M GlcNAc group; Group C was treated with 0.5 M GlcNAc group; Group D was treated with 0.15 M GlcNAc group; Group E was treated with 0.05 M GlcNAc group. All compounds were continuously delivered to the joints by Alzet mini pumps. The delivery rate for this pump was 2.5 μl/hour. […]"}, "[9]": {"tested_on": "human articular chondrocytes", "conditions": "cited from earlier work"}, "chondrocytes": {"tested_on": "chondrocytes", "conditions": "low millimolar concentrations; cited from earlier work"}}, "note": "“Also recorded” adds a separate entry of the source.", "data": [{"smiles": "CC(=O)N[C@H]1C(O)O[C@H](CO)[C@@H](O)[C@@H]1O", "note": "(stereo partly drawn) [GlcNAc, N-Acetylglucosamine]", "values": [{"measurement": "Sulfated glycosaminoglycan loss, histological grade", "setting": "[1]; Lateral femoral condyle, saline 2.43 ± 0.53, P ≦ 0.03", "value": "1.50 ± 0.83"}, {"measurement": "Impairment of cartilage surface integrity, histological grade", "setting": "[1]; Lateral femoral condyle, saline 2.00 ± 1.00, P ≦ 0.17", "value": "1.33 ± 0.51"}, {"measurement": "Sulfated glycosaminoglycan loss, histological grade", "setting": "[1]; Medial femoral condyle, saline 1.57 ± 0.53, P ≦ 0.4", "value": "1.66 ± .33"}, {"measurement": "Impairment of cartilage surface integrity, histological grade", "setting": "[1]; Medial femoral condyle, saline 1.66 ± 0.41, P ≦ 0.91", "value": "1.66 ± 0.81"}, {"measurement": "Sulfated glycosaminoglycan loss, histological grade", "setting": "[1]; Tibial plateau, saline 1.71 ± 0.76, P ≦ 0.14", "value": "1.16 ± 0.40"}, {"measurement": "Impairment of cartilage surface integrity, histological grade", "setting": "[1]; Tibial plateau, saline 1.71 ± 0.49, P ≦ 0.05", "value": "1.16 ± 0.41"}, {"measurement": "Synovial neoangiogenesis, animals with finding / animals", "setting": "[2]; Lateral femoral condyle, N = 6, saline 4/7, P ≦ 0.16", "value": "1/6"}, {"measurement": "Synovial thickening/proliferation, animals with finding / animals", "setting": "[2]; Lateral femoral condyle, N = 6, saline 7/7, P ≦ 0.006", "value": "2/6"}, {"measurement": "Synovial neoangiogenesis, animals with finding / animals", "setting": "[2]; Medial femoral condyle, N = 6, saline 5/7, P ≦ 0.05", "value": "1/6"}, {"measurement": "Synovial thickening/proliferation, animals with finding / animals", "setting": "[2]; Medial femoral condyle, N = 6, saline 7/7, P ≦ 0.006", "value": "2/6"}, {"measurement": "Synovial neoangiogenesis, animals with finding / animals", "setting": "[2]; Tibial plateau, N = 6, saline 4/7, P ≦ 0.16", "value": "1/6"}, {"measurement": "Synovial thickening/proliferation, animals with finding / animals", "setting": "[2]; Tibial plateau, N = 6, saline 7/7, P ≦ 0.0002", "value": "1/6"}, {"measurement": "Subchondral bone marrow hypercellularity and increased vascularization, animals with finding / animals", "setting": "[3]; Lateral femoral condyle, N = 6, saline 3/7, P ≦ 0.07", "value": "0/6"}, {"measurement": "Subchondral bone marrow hypercellularity and increased vascularization, animals with finding / animals", "setting": "[3]; Medial femoral condyle, N = 6, saline 3/7, P ≦ 0.07", "value": "0/6"}, {"measurement": "Subchondral bone marrow hypercellularity and increased vascularization, animals with finding / animals", "setting": "[3]; Tibial plateau, N = 6, saline 3/7, P ≦ 0.35", "value": "1/6"}, {"measurement": "Surface areas of the cartilage lesions (digital image analysis)", "setting": "[4]; femoral condyles and tibial plateaus, intra-articular GlcNAc versus hyaluronan group, FIGS. 6a and 6b", "value": "greatly reduced"}, {"measurement": "Gross morphological analysis of the femoral condyles", "setting": "[4]; intra-articular GlcNAc versus intra-articular hyaluronan group (n=7)", "value": "no significant difference"}, {"measurement": "Chondroprotective activity, gross morphology of tibial plateaus", "setting": "[4]; intra-articular GlcNAc versus intra-articular hyaluronan, p<0.01, FIG. 3", "value": "significantly greater"}, {"measurement": "Gross morphological analysis of the femoral condyles", "setting": "[4]; intra-articular, two times per week for seven weeks, n=7, versus saline control", "value": "trend towards improved cartilage condition"}, {"measurement": "Rabbits that developed a cartilage lesion on the tibial plateaus", "setting": "[4]; intra-articular, two times per week for seven weeks, control group 6 of 7, p<0.003, FIG. 3", "value": "1 of 7"}, {"measurement": "Synovial effusion", "setting": "[5]; intra-articular GlcNAc versus hyaluronan group", "value": "no significant difference"}, {"measurement": "Joint swelling", "setting": "[5]; intra-articular, versus saline", "value": "does not significantly affect"}, {"measurement": "Synovial effusions", "setting": "[5]; intra-articular, versus saline", "value": "does not significantly affect"}, {"measurement": "DNA content assessment of synovial tissue", "setting": "[6]; intra-articular GlcNAc versus hyaluronan group, p<0.05", "value": "significant reduction in synovial hyperplasia and cellularity"}, {"measurement": "DNA content in synovial tissue", "setting": "[6]; intra-articular, versus saline", "value": "does not significantly affect"}, {"measurement": "Degree of cartilage damage, gross morphological analysis of tibial plateaus and femoral condyles", "setting": "[7]; intra-muscular 200 mg/kg three times per week for seven weeks, 6 rabbits versus 6 saline controls, FIGS. 1a and 1b", "value": "did not reveal a statistically significant difference"}, {"measurement": "Synovitis", "setting": "[7]; intra-muscular GlcNAc", "value": "trend towards reduction of synovitis; also recorded: significant reduction of synovitis"}, {"measurement": "Duration of continuous delivery to the joint", "setting": "[8]", "value": "more than three weeks"}, {"measurement": "Concentration that does not induce chondrocyte cell death", "setting": "[9]", "value": "higher than 50 mM"}]}, {"smiles": "N[C@H]1C(O)O[C@H](CO)[C@@H](O)[C@@H]1O", "note": "(stereo partly drawn) [GlcN, glucosamine]", "values": [{"measurement": "Cytotoxicity for chondrocytes", "setting": "chondrocytes", "value": "cytotoxic for chondrocytes at low millimolar concentrations"}]}]}
